Data from publication PMC4624630, “Enzymatic Synthesis of Rhamnose Containing Chemicals by Reverse Hydrolysis” (PLoS ONE, 2015).

Molecular target: T1, RhaL1 (α-L-rhamnosidase from Alternaria sp. L1) (Alternaria sp. L1, UniProt H6UY33)
T1 construct: recombinant, secreted from Pichia pastoris GS115 (vector pPIC9K, SnaBI/NotI), N-glycosylated; about 120 kDa on SDS-PAGE, about 85 kDa after PNGase F
T1 sequence (H6UY33 20-681): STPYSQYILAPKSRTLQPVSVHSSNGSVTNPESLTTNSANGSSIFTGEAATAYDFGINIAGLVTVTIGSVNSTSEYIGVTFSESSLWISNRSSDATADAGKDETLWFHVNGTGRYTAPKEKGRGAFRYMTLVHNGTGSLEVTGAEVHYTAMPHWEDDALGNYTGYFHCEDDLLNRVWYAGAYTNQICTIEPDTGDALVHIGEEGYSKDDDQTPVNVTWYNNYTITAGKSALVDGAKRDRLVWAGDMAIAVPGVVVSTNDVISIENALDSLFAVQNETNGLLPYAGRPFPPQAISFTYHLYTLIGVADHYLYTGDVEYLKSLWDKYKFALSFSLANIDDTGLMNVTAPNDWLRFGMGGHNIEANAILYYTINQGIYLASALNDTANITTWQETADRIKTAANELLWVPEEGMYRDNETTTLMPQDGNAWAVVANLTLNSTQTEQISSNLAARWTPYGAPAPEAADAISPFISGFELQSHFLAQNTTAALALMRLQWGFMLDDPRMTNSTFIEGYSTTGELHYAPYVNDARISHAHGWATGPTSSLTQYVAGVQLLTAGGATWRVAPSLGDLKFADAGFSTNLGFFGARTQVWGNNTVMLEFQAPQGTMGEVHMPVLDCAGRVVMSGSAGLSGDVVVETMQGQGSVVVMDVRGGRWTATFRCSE
Assay: reverse hydrolysis; HPLC, product by ESI-MS and NMR
Type: biochemical
Settings: glycosyl donor, acceptor D-mannitol (also D-fructose, esculin); pH 6.5, 55 °C, 48 h

C[C@@H]1OC(O)[C@H](O)[C@H](O)[C@H]1O (stereo partly drawn) [L-rhamnose]
reverse hydrolysis; HPLC, product by ESI-MS and NMR: synthesized by the recombinant RhaL1 using L-rhamnose as the glycosyl donor and mannitol as the acceptor
